Reference: article PMC10202811 (Nature Medicine, 2023)
“And” between values parts separate entries of the source, which are not always exact repeats. Equal values may be shown once.

Assay: Plasma pharmacokinetics of lorlatinib at steady state (LC-MS/MS, non-compartmental analysis)
Assay type: in vivo, human
Parameters: Vz_F / Cmax_D / AUMClast / AUMC_TAU: unit not given here
Conditions: for Tlag: unit assumed
From the text: Lorlatinib was isolated from human plasma by a liquid-iquid extraction procedure. […] A linear-log trapezoidal method was used [NT] A best-fit method was used to estimate terminal elimination and to extrapolate any plasma concentration versus time profiles to compute [NT].

[1] = Cohort A1, 45 mg/m2 per dose, C1D15, Max, N 3
[2] = Cohort A1, 45 mg/m2 per dose, C1D15, Min, N 3
[3] = Cohort A1, 45 mg/m2 per dose, C1D15, individual patient
[4] = Cohort A1, 60 mg/m2 per dose, C1D15, Max, N 3
[5] = Cohort A1, 60 mg/m2 per dose, C1D15, Min, N 3
[6] = Cohort A1, 60 mg/m2 per dose, C1D15, individual patient
[7] = Cohort A1, 75 mg/m2 per dose, C1D15, Max, N 3
[8] = Cohort A1, 75 mg/m2 per dose, C1D15, Min, N 3
[9] = Cohort A1, 75 mg/m2 per dose, C1D15, individual patient
[10] = Cohort A1, 95 mg/m2 per dose, C1D15, Max, N 9
[11] = Cohort A1, 95 mg/m2 per dose, C1D15, Min, N 9
[12] = Cohort A1, 95 mg/m2 per dose, C1D15, individual patient
[13] = Cohort A1, 115 mg/m2 per dose, C1D15, Max, N 6
[14] = Cohort A1, 115 mg/m2 per dose, C1D15, Min, N 6
[15] = Cohort A1, 115 mg/m2 per dose, C1D15, individual patient
[16] = Cohort A2, 100 mg per dose, C1D15, Max, N 5
[17] = Cohort A2, 100 mg per dose, C1D15, Min, N 5
[18] = Cohort A2, 100 mg per dose, C1D15, individual patient
[19] = Cohort A2, 150 mg per dose, C1D15, Min, N 10
[20] = Cohort A2, 150 mg per dose, C1D15, individual patient
[21] = Cohort B2, 95 mg/m2 per dose, C1D15, Min, N 2
[22] = Cohort B2, 95 mg/m2 per dose, C1D15, individual patient
[23] = Cohort B2, 115 mg/m2 per dose, C1D15, Max, N 6
[24] = Cohort B2, 115 mg/m2 per dose, C1D15, Min, N 6
[25] = Cohort B2, 115 mg/m2 per dose, C1D15, individual patient
[26] = Cycle 1 Day 1, Cohort A1, 95 mg/m2 per dose
[27] = Cycle 1 Day 1, Cohort A1, 115 mg/m2 per dose
[28] = Cycle 1 Day 1, Cohort A2, 150 mg per dose
[29] = Cycle 1 Day 1, Cohort A2, 150 mg per dose, in h (unit assumed)
[30] = Cycle 1 Day 1, Cohort A2, 150 mg per dose, in ng·h/mL (unit assumed)

For `C[C@H]1Oc2cc(cnc2N)-c2c(nn(C)c2C#N)CN(C)C(=O)c2ccc(F)cc21` [Lorlatinib, (10R)-7-amino-12-fluoro-2,10,16-trimethyl-15-oxo-10,15,16,17-tetrahydro-2H-8,4-(metheno)pyrazolo[4,3-h][2,5,11]-benzoxadiazacyclotetradecine-3-carbonitrile], the “AUCtau or Cmax at steady state with oral dispersion formulation” value (17 patients who received the oral dispersion formulation) was “no differences”, the CLss_F (Cohort A1, 45 mg/m2 per dose, C1D15, Geometric Mean, N 3) was 15.376 L/h and the AUC_TAU [1] was 3727.9 ng·h/mL. It also gave a CLss_F [1] of 19.85 L/h, a Cmax [1] of 639 ng/mL and a Tmax [1] of 2 h. The AUC_TAU [2] was 1259.74 ng·h/mL, the Cmax [2] was 243 ng/mL and the Tmax [2] was 1 h. For the same compound, the AUC_TAU [3] was 1259.74 ng·h/mL and 3727.9 ng·h/mL, the CLss_F [3] was 19.85 L/h and 12.41 L/h and 14.75 L/h and the Cmax [3] was 639 ng/mL and 243 ng/mL. It also gave a Tmax [3] of 2 h, a CLss_F (Cohort A1, 60 mg/m2 per dose, C1D15, Geometric Mean, N 3) of 13.223 L/h and an AUC_TAU [4] of 4173.07 ng·h/mL. The CLss_F [4] was 16.77 L/h, the Cmax [4] was 623 ng/mL and the Tmax [4] was 2 h. It also gave a CLss_F (Cohort A1, 60 mg/m2 per dose, C1D15, Median, N 3) of 12.07 L/h, an AUC_TAU [5] of 3503.02 ng·h/mL and a CLss_F [5] of 11.42 L/h. The Cmax [5] was 343 ng/mL, the Tmax [5] was 1 h and the AUC_TAU [6] was 3503.02 ng·h/mL and 4173.07 ng·h/mL. For the same compound, the CLss_F [6] was 12.07 L/h and 11.42 L/h and 16.77 L/h, the Cmax [6] was 343 ng/mL and the Tmax [6] was 2 h. It also gave a CLss_F (Cohort A1, 75 mg/m2 per dose, C1D15, Geometric Mean, N 3) of 15.412 L/h, an AUC_TAU [7] of 6555.75 ng·h/mL and a CLss_F [7] of 18.36 L/h. For the same compound, the Cmax [7] was 670 ng/mL, the Tmax [7] was 6 h and the CLss_F (Cohort A1, 75 mg/m2 per dose, C1D15, Median, N 3) was 17.43 L/h. The AUC_TAU [8] was 2723.69 ng·h/mL, the CLss_F [8] was 11.44 L/h and the Cmax [8] was 609 ng/mL. The Tmax [8] was 1 h, the AUC_TAU [9] was 6555.75 ng·h/mL and 2723.69 ng·h/mL and the CLss_F [9] was 11.44 L/h and 17.43 L/h and 18.36 L/h. For the same compound, the Cmax [9] was 609 ng/mL and 670 ng/mL, the Tmax [9] was 6 h and 2 h and the CLss_F (Cohort A1, 95 mg/m2 per dose, C1D15, Geometric Mean, N 9) was 9.802 L/h. It also gave an AUC_TAU [10] of 14697.9 ng·h/mL, a CLss_F [10] of 14.62 L/h and a Cmax [10] of 1880 ng/mL. It also gave a CLss_F (Cohort A1, 95 mg/m2 per dose, C1D15, Median, N 9) of 10.12 L/h, an AUC_TAU [11] of 3760.87 ng·h/mL and a CLss_F [11] of 6.46 L/h. The Cmax [11] was 590 ng/mL, the Tmax [11] was 1 h and the AUC_TAU [12] was 14697.9 ng·h/mL and 11566.7 ng·h/mL and 5234.23 ng·h/mL and 6616.73 ng·h/mL and 4786.75 ng·h/mL and 7725.79 ng·h/mL and 3760.87 ng·h/mL and 12827.9 ng·h/mL. The CLss_F [12] was 6.46 L/h and 12.54 L/h and 10.51 L/h and 8.31 L/h and 12.53 L/h and 7.77 L/h and 10.12 L/h and 14.62 L/h and 8.19 L/h, the Cmax [12] was 1420 ng/mL and 607 ng/mL and 842 ng/mL and 590 ng/mL and 1230 ng/mL and 1220 ng/mL and 938 ng/mL and 1880 ng/mL and the Tmax [12] was 2 h. For the same compound, the CLss_F (Cohort A1, 115 mg/m2 per dose, C1D15, Geometric Mean, N 6) was 11.462 L/h, the AUC_TAU [13] was 14092.4 ng·h/mL and the CLss_F [13] was 16.79 L/h. It also gave a Cmax [13] of 2090 ng/mL, a CLss_F (Cohort A1, 115 mg/m2 per dose, C1D15, Median, N 6) of 10.95 L/h and an AUC_TAU [14] of 5878.52 ng·h/mL. The CLss_F [14] was 7.45 L/h, the Cmax [14] was 708 ng/mL and the Tmax [14] was 1 h. For the same compound, the AUC_TAU [15] was 8206.77 ng·h/mL and 6238.52 ng·h/mL and 11011.1 ng·h/mL and 5878.52 ng·h/mL and 8933.2 ng·h/mL and 14092.4 ng·h/mL, the CLss_F [15] was 15.84 L/h and 9.62 L/h and 9.99 L/h and 11.91 L/h and 16.79 L/h and 7.45 L/h and the Cmax [15] was 708 ng/mL and 1210 ng/mL and 1530 ng/mL and 859 ng/mL and 2090 ng/mL. The Tmax [15] was 2 h, the CLss_F (Cohort A2, 100 mg per dose, C1D15, Geometric Mean, N 5) was 14.731 L/h and the AUC_TAU [16] was 16686 ng·h/mL. It also gave a CLss_F [16] of 32.13 L/h, a Cmax [16] of 1830 ng/mL and a CLss_F (Cohort A2, 100 mg per dose, C1D15, Median, N 5) of 16.3 L/h. It also gave an AUC_TAU [17] of 3111.99 ng·h/mL, a CLss_F [17] of 5.99 L/h and a Cmax [17] of 341 ng/mL. For the same compound, the Tmax [17] was 1 h, the AUC_TAU [18] was 16686 ng·h/mL and 10710.2 ng·h/mL and 3111.99 ng·h/mL and 4225.59 ng·h/mL and the CLss_F [18] was 5.99 L/h and 9.34 L/h and 32.13 L/h and 16.3 L/h and 23.67 L/h. The Cmax [18] was 1830 ng/mL and 1630 ng/mL and 341 ng/mL and 528 ng/mL, the Tmax [18] was 2 h and the AUC_TAU (Cohort A2, 150 mg per dose, C1D15, Max, N 10) was 8297.22 ng·h/mL. The AUC_TAU [19] was 4999.09 ng·h/mL, the Cmax [19] was 502 ng/mL and the Tmax [19] was 1 h. For the same compound, the AUC_TAU [20] was 7380.68 ng·h/mL and 6784.89 ng·h/mL and 4999.09 ng·h/mL and 5689.56 ng·h/mL and 7693.93 ng·h/mL and 6576.81 ng·h/mL and 7115.87 ng·h/mL and 7004.8 ng·h/mL and 8297.22 ng·h/mL, the CLss_F [20] was 25.34 L/h and 20.32 L/h and 22.11 L/h and 30.01 L/h and 26.36 L/h and 19.5 L/h and 22.81 L/h and 21.08 L/h and the Cmax [20] was 647 ng/mL and 750 ng/mL and 502 ng/mL and 670 ng/mL and 912 ng/mL and 943 ng/mL and 602 ng/mL and 814 ng/mL. The Tmax [20] was 2 h, the AUC_TAU [21] was 5523.12 ng·h/mL and the Cmax [21] was 721 ng/mL. For the same compound, the Tmax [21] was 2 h, the AUC_TAU [22] was 5523.12 ng·h/mL and the Cmax [22] was 721 ng/mL. For the same compound, the Tmax [22] was 2 h, the CLss_F (Cohort B2, 115 mg/m2 per dose, C1D15, Geometric Mean, N 6) was 13.049 L/h and the AUC_TAU [23] was 17825.7 ng·h/mL. The CLss_F [23] was 20.8 L/h, the Cmax [23] was 2190 ng/mL and the Tmax [23] was 2 h. For the same compound, the CLss_F (Cohort B2, 115 mg/m2 per dose, C1D15, Median, N 6) was 12.47 L/h, the AUC_TAU [24] was 5493.74 ng·h/mL and the CLss_F [24] was 7.85 L/h. The Cmax [24] was 766 ng/mL, the Tmax [24] was 1 h and the AUC_TAU [25] was 17825.7 ng·h/mL and 6932.9 ng·h/mL and 8905.09 ng·h/mL and 5493.74 ng·h/mL and 6008.87 ng·h/mL and 6951.39 ng·h/mL. The Cmax [25] was 2190 ng/mL and 1680 ng/mL and 1330 ng/mL and 766 ng/mL, the Tmax [25] was 2 h and the Tlast [26] was 24 h. For the same compound, the Tmax (Cycle 1 Day 1, Cohort A1, 95 mg/m2 per dose, listed as lorlatinib, in h (unit assumed)) was 2, the Tlag [26] was 0 h and the Tlast [27] was 24 h. For the same compound, the Tmax (Cycle 1 Day 1, Cohort A1, 115 mg/m2 per dose, in h (unit assumed)) was 1, the Tmax (Cycle 1 Day 1, Cohort A1, 115 mg/m2 per dose, listed as lorlatinib, in h (unit assumed)) was 2 and the Tlag [27] was 0 h. The AUMClast [28] was 83897.37077 and 79949.21779 and 69497.95951 and 102751.9946 and 91445.2354 and 87523.98089 and 72181.31228, the Tlast [28] was 24 h and the MRTlast [29] was 8.731 and 10.12 and 8.547 and 10.11 and 9.639 and 8.636. The Tmax [29] was 2, the Clast (Cycle 1 Day 1, Cohort A2, 150 mg per dose, in ng/mL) was 158 and 127 and 138 and 146 and 206 and the AUCall [30] was 9157 and 6869 and 12022.44647 and 9046 and 9080. The AUClast [30] was 9157 and 6869 and 12022.44647 and 9046 and 9080 and 8359.
